Experimental data: the supplement of paper PMC10307832

Assays:
Test in all cases: relative viability (nuclei count vs DMSO), 5 days (fraction); higher = more cells survive
[1] = compound: CCCS(=O)(=O)Nc1ccc(F)c(C(=O)c2c[nH]c3ncc(-c4ccc(Cl)cc4)cc23)c1F [Vemurafenib] + CC(=O)c1c(C)c2cnc(Nc3ccc(N4CCNCC4)cn3)nc2n(C2CCCC2)c1=O [Palbociclib] (partner 0.5 µM)
Procedure, shortened: (§1)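 Dosing by pin tool came one day after lung cancer cell lines were seeded in 1536-well plates, using either one drug or a fixed anchor-drug dose plus five library-drug doses (not always all listed) in √10 steps. After 5 days, nuclei were counted on 4× images. Relative viability is treated-well nuclei count divided by vehicle-well nuclei count, and values are medians of duplicate plates.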

[2] = compound: CCCS(=O)(=O)Nc1ccc(F)c(C(=O)c2c[nH]c3ncc(-c4ccc(Cl)cc4)cc23)c1F [Vemurafenib] + CC1(C)CCC(c2ccc(Cl)cc2)=C(CN2CCN(c3ccc(C(=O)NS(=O)(=O)c4ccc(N[C@H](CCN5CCOCC5)CSc5ccccc5)c(S(=O)(=O)C(F)(F)F)c4)cc3)CC2)C1 [Navitoclax] (partner 0.5 µM)
Procedure, shortened: as §1

[3] = compound: COc1cccc2cc(-c3nc([C@H]4CC[C@H](C(=O)O)CC4)n4ncnc(N)c34)[nH]c12 [OSI-027] + CC(C)C[C@H](NC(=O)[C@H](Cc1ccccc1)NC(=O)c1cnccn1)B(O)O [Bortezomib] (partner 0.002 µM)
Procedure, shortened: as §1

[4] = compound: COc1cccc2cc(-c3nc([C@H]4CC[C@H](C(=O)O)CC4)n4ncnc(N)c34)[nH]c12 [OSI-027] + Nc1ncn([C@H]2C[C@H](O)[C@@H](CO)O2)c(=O)n1 [Decitabine] (partner 2 µM)
Procedure, shortened: as §1

Cell Line	relative viability ([1]; first compound 0.03162 µM)	relative viability ([1]; first compound 0.1 µM)	relative viability ([1]; first compound 0.3162 µM)	relative viability ([1]; first compound 1 µM)	relative viability ([2]; first compound 0.03162 µM)	relative viability ([2]; first compound 0.1 µM)	relative viability ([2]; first compound 0.3162 µM)	relative viability ([2]; first compound 1 µM)	relative viability ([3]; first compound 0.01 µM)	relative viability ([3]; first compound 0.03162 µM)	relative viability ([3]; first compound 0.1 µM)	relative viability ([3]; first compound 0.3162 µM)	relative viability ([3]; first compound 1 µM)	relative viability ([4]; first compound 0.01 µM)	relative viability ([4]; first compound 0.03162 µM)	relative viability ([4]; first compound 0.1 µM)	relative viability ([4]; first compound 0.3162 µM)	relative viability ([4]; first compound 1 µM)
201T	0.37	0.309	0.365	0.402	1.16	1.26	1.2	1.14	1.14	1.15	1.07	1.12	1.1	0.885	0.832	0.842	0.887	0.8
A549					1.09	1.29	1.31	1.16						0.301	0.256	0.272	0.319	0.102
A-427	0.525	0.481		0.553	0.969	0.887	0.977	0.94	1.13	0.965	0.967	0.803	0.578	0.522	0.59	0.469	0.484	0.37
ABC-1	0.744	0.57	0.767	0.545					0.284	0.366	0.331	0.405	0.27	1.03	1.33	1.16	1.05	0.762
BEN	0.489	0.492	0.421	0.491	0.0514	0.0623	0.0526	0.0536	0.653	0.83	0.488	0.379	0.389	0.609	0.707	0.596	0.513	0.483
CAL-12T	0.408	0.251	0.444	0.439	1.28	1.2	1.47	1.28	0.814	1.02	0.713	0.754	0.729					
COR-L23	0.325	0.257	0.178	0.265	0.841	0.988	0.76	0.953	1.16	0.923	1.07	1.13	0.298	0.482	0.474	0.379	0.372	0.236
COR-L 105	0.405		0.328	0.403	0.647		0.815	0.841	0.682	0.716	0.779	0.572	0.428	0.739	0.56	0.603	0.639	0.647
Calu-6					0.866	0.814	0.609	0.707	1.34	0.956	1	0.906	0.896					
ChaGo-K-1	0.941	0.884	0.878	0.913	0.949	0.809		0.958	0.987	1.17	0.554	0.838	0.762	0.518	0.526	0.497	0.522	0.45
EBC-1					0.409	0.408	0.453	0.461	0.497	0.557	0.515	0.53	0.375					
